Test results: patent publication US10450297B2, “Sulfonyl amide derivatives for the treatment of abnormal cell growth” (Pfizer, Inc., priority 2007, dated 2019)
Where a name gives a salt, the structure may show the parent alone.

Molecular target: FAK kinase (catalytic construct FAK(410-689)) (Homo sapiens (Human), UniProt Q05397)
Experiment: FAKcd kinase ELISA (inhibition of poly-glu-tyr phosphorylation by FAK(410-689))
Format: biochemical
Settings: 50 μM final ATP

Chain of FAK kinase (catalytic construct FAK(410-689)) (Q05397 410-689): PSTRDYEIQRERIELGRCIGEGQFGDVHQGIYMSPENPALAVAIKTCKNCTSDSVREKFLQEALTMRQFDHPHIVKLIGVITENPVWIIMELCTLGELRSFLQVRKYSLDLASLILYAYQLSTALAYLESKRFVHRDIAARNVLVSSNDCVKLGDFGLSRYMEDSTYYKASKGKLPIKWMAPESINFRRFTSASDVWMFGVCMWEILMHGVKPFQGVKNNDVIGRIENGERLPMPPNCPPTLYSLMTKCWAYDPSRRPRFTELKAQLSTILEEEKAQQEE

CN(C)C(=O)c1ccc(Nc2ncc(C(F)(F)F)c(NCc3cccnc3N(C)S(C)(=O)=O)n2)cc1 [Compound 230, N,N-dimethyl-4-({4-[({2-[methyl(methylsulfonyl)amino]pyridin-3-yl}methyl)amino]-5-(trifluoromethyl)pyrimidin-2-yl}amino)benzamide]
IC50: 2.38 nM

CC(O)c1ccc(Nc2ncc(C(F)(F)F)c(NCc3ncccc3N(C)S(C)(=O)=O)n2)cc1 (stereo not drawn) [Compound 329, N-[2-({[2-{[4-(1-hydroxyethyl)phenyl}amino}-5-(trifluoromethyl)pyrimidin-4-yl]amino}methyl)pyridin-3-yl)-N-methylmethane-sulfonamide]
IC50: 0.914 nM

CC(C)OCc1ccc(Nc2ncc(C(F)(F)F)c(NCc3cccnc3N(C)S(C)(=O)=O)n2)cc1 [Compound 347, N-[3-({{2-{[4-(isopropoxymethyl)phenyl]amino}-5-(trifluoromethyl)pyrimidin-4-yl]amino}methyl)pyridin-2-yl]-N-methylmethane-sulfonamide]
IC50: 2.15 nM

CN(C)CCN(C)C(=O)c1cccc(Nc2ncc(C(F)(F)F)c(NCc3cccnc3N(C)S(C)(=O)=O)n2)c1 [Compound 137, N-[2-(dimethylamino)ethyl]-N-methyl-3-({4-[({2-[methyl(methylsulfonyl)amino]pyridin-3-yl}methyl)amino)-5-(trifluoromethyl)pyrimidin-2-yl}amino)benzamide]
IC50: 4.33 nM

CN(c1ncccc1CNc1nc(NC2CCC2)ncc1C(F)(F)F)S(C)(=O)=O [Compound 38, N-[3-({[2-(cyclobutylamino)-5-(trifluoromethyl)pyrimidin-4-yl]amino}methyl)pyrldin-2-yl]-N-methylmethane-sulfonamide]
IC50: 497 nM

CCn1nccc1Nc1ncc(C(F)(F)F)c(NCc2cccnc2N(C)S(C)(=O)=O)n1 [Compound 91, N-{3-[({2-[(1-ethyl-1H-pyrazol-5-yl)amino]-5-(trifluoromethyl)pyrimidin-4-yl}amino)methyl]pyridin-2-yl}-N-methylmethane-sulfonamide]
IC50: 188 nM

CN(c1ncccc1CNc1nc(Nc2ccc(CO)cc2)ncc1C(F)(F)F)S(C)(=O)=O [Example 6, N-(3-((2-(4-(hydroxymethyl)phenylamino)-5-(trifluoromethyl)pyrimidin-4-ylamino)methyl)pyridin-2-yl)-N-methylmethanesulfonamide]
IC50: < 0.595 nM

CN(c1cccnc1CNc1nc(Nc2ccc(C(N)=O)c(Cl)c2)ncc1C(F)(F)F)S(C)(=O)=O [Compound 359, 2-chloro-4-({4-[({3-[methyl(methylsulfonyl)amino]pyridin-2-yl}methyl)amino]-5-(trifluoromethyl)pyrimidin-2-yl}amino)benzamide]
IC50: < 0.595 nM

CS(=O)(=O)c1cccc(CNc2nc(Nc3ccc(S(N)(=O)=O)cc3)ncc2Br)c1 [Compound 35, 4-[(5-bromo-4-{[3-(methylsulfonyl)benzyl]amino}pyrimidin-2-yl)amino]benzene-sulfonamide]
IC50: 17.6 nM

CN(c1ncccc1CNc1nc(Nc2cccc(C(=O)N3CCCCC3)c2)ncc1C(F)(F)F)S(C)(=O)=O [Compound 171, N-methyl-N-[3-({[2-{[3-(piperidin-1-ylcarbonyl)phenyl]amino}-5-(trifluoromethyl)pyrimidin-4-yl]amino}methyl)pyridin-2-yl]methanesulfonamide]
IC50: 7.91 nM

CN(c1ncccc1CNc1nc(Nc2ccc(C#N)nc2)ncc1C(F)(F)F)S(C)(=O)=O [Compound 292, N-{3-[({2-[(6-cyanopyridin-3-yl)amino]-5-(trifluoromethyl)pyrimidin-4-yl}amino)methyl]pyridin-2-yl}-N-methylmethane-sulfonamide]
IC50: 23.3 nM

C[C@H](N)c1ccc(Nc2ncc(C(F)(F)F)c(NCc3cccc(N(C)S(C)(=O)=O)c3)n2)cc1 [Compound 365, N-[3-({[2-({4-[(1S)-1-aminoethyl]phenyl}amino)-5-(trifluoromethyl)pyrimidin-4-yl]amino}methyl)phenyl]-N-methylmethanesulfonamide]
IC50: 0.976 nM

Cc1ccc(CNc2nc(Nc3ccc(N4CCCS4(=O)=O)cc3)ncc2C(F)(F)F)c(N(C)S(C)(=O)=O)n1 [Compound 28, N-[3-({[2-{[4-(1,1-dloxidolsothiazolidin-2-yl)phenyl]amino}-5-(trifluoromethyl)pyrimidin-4-yl]amino}methyl)-6-methylpyridin-2-yl]-N-methylmethanesulfonamide]
IC50: 2.01 nM

C[C@@H](N)c1ccc(Nc2ncc(C(F)(F)F)c(NCc3cccc(N(C)S(C)(=O)=O)c3)n2)cc1 [Compound 353, N-[3-({[2-({4-[(1R)-1-aminoethyl]phenyl}amino)-5-(trifluoromethyl)pyrimidin-4-yl]amino}methyl)phenyl]-N-methylmethanesulfonamide]
IC50: < 0.595 nM

CN(c1cccnc1CNc1nc(Nc2ccc(C(C)(C)O)cc2)ncc1C(F)(F)F)S(C)(=O)=O [Compound 325, N-[2-({[2-{[4-(1-hydroxy-1-methylethyl)phenyl]amino}-5-(trifluoromethyl)pyrimidin-4-yl)amino}methyl)pyridin-3-yl]-N-methylmethane-sulfonamide]
IC50: 2.66 nM

CN(c1ncccc1CNc1nc(Nc2cc(C(N)=O)ccc2F)ncc1C(F)(F)F)S(C)(=O)=O [Compound 375, 4-fluoro-3-({4-[({2-[methyl(methylsulfonyl)amino]pyridin-3-yl}methyl)amino]-5-(trifluoromethyl)pyrimidin-2-yl)amino)benzamide]
IC50: 6.29 nM

CC(=O)Nc1cccc(Nc2ncc(C(F)(F)F)c(NCc3ncccc3N(C)S(C)(=O)=O)n2)c1 [Compound 386, N-[3-({4-[({3-[methyl(methylsulfonyl)amino]pyridin-2-yl}methyl)amino]-5-(trifluoromethyl)pyrimidin-2-yl}amino)phenyl]acetamide]
IC50: 1.65 nM

Cc1cc(Nc2ncc(C(F)(F)F)c(NCc3cccnc3N(C)S(C)(=O)=O)n2)ccc1C(N)=O [Compound 334, 2-methyl-4-({4-[({2-[methyl(methylsulfonyl)amino]pyridin-3-yl}methyl)amino]-5-(trifluoromethyl)pyrimidin-2-yl)amino)benzamide]
IC50: < 0.595 nM

CN(c1ncccc1CNc1nc(Nc2cccc(C(=O)NC3CCCC3)c2)ncc1C(F)(F)F)S(C)(=O)=O [Compound 163, N-cyclopentyl-3-({4-[({2-[methyl(methylsulfonyl)amino]pyridin-3-yl}methyl)amino]-5-(trifluoromethyl)pyrimidin-2-yl}amino)benzamide]
IC50: 5.1 nM

CN(c1ncccc1CNc1nc(Nc2ccc(/C(N)=N/O)cc2)ncc1C(F)(F)F)S(C)(=O)=O [Compound 407, N′-hydroxy-4-({4-[({2-[methyl(methylsulfonyl)amino]pyridin-3-yl}methyl)amino]-5-(trifluoromethyl)pyrimidin-2-yl}amino)benzenecarboximidamide]
IC50: < 0.595 nM

CCNC(=O)c1ccc(Nc2ncc(C(F)(F)F)c(NCc3ccc(C)nc3N(C)S(C)(=O)=O)n2)cc1 [Compound 89, N-ethyl-4-({4-[({6-methyl-2-[methyl(rnethylsu!fonyl)amino]pyridin-3-yl}methyl)amino]-5-(trifluoromethyl)pyrimidin-2-yl}amino)benzamide]
IC50: 0.6 nM

Cc1ccnc(N(C)S(C)(=O)=O)c1CNc1nc(Nc2ccc(C(N)=O)cc2)ncc1C(F)(F)F [Compound 83, 4-({4-[({4-methyl-2-[methyl(methylsulfonyl)amino]pyrldin-3-yl}methyl)amino]-5-(trifluoromethyl)pyrimidin-2-yl}amino)benzamide]
IC50: 0.6 nM

Cc1ccc(C#N)cc1Nc1ncc(C(F)(F)F)c(NCc2cccnc2N(C)S(C)(=O)=O)n1 [Compound 220, N-{3-[({2-[(5-cyano-2-methylphenyl)amino]-5-(trifluoromethyl)pyrimidin-4-yl}amino)methyl]pyridin-2-yl}-N-methylmethane-sulfonamide]
IC50: 0.6 nM

Cc1ncc(CNc2nc(Nc3cccc(C(N)=O)c3)ncc2C(F)(F)F)c(N(C)S(C)(=O)=O)n1 [Compound 296, 3-({4-[({2-methyl-4-[methyl(methylsulfonyl)amino]pyrimidin-5-yl}methyl)amino]-5-(trifluoromethyl)pyrimidin-2-yl}amino)benzamide]
IC50: 3.89 nM

CN(c1ncccc1CNc1nc(Nc2ccc(C(N)=O)cc2F)ncc1C(F)(F)F)S(C)(=O)=O [Example 14, 3-fluoro-4-({4-[({2-[methyl(methylsulfonyl)amino]pyridin-3-yl}methyl)amino]-5-(trifluoromethyl)pyrimidin-2-yl}amino)benzamide formic acid salt]
IC50: < 0.595 nM

CN(c1ncccc1CNc1nc(Nc2cccc(CNS(C)(=O)=O)c2)ncc1C(F)(F)F)S(C)(=O)=O [Compound 33, N-methyl-N-{3-[({2-[(3-{[(methylsulfonyl)amino]methyl}phenyl)amino]-5-(trifluoromethyl)pyrimidin-4-yl}amino)methyl)pyridin-2-yl}methanesulfonamide]
IC50: 1.33 nM

CC(=O)NCc1ccc(Nc2ncc(C(F)(F)F)c(NCc3cccnc3N(C)S(C)(=O)=O)n2)cc1 [Example 5, N-(4-(4-((2-(N-methylmethan-5-ylsulfonamido)pyridin-3-yl)methylamino)-5-(trifluoromethyl)pyrimidin-2-ylamino)benzyl)acetamide]
IC50: 0.6 nM

CN(c1ncccc1CNc1nc(Nc2ccc(C(N)=O)cc2)ncc1C(F)(F)F)S(C)(=O)=O [Compound 20, 4-({4-[({2-[methyl(methylsulfonyl)amino]pyridin-3-yl}methyl)amino]-5-(trifluoromethyl)pyrimidin-2-yl}amino)benzamide]
IC50: 0.6 nM

Cc1ccc(N(C)S(C)(=O)=O)c(CNc2nc(Nc3ccccc3)ncc2C(F)(F)F)c1 [Compound 66, N-[2-({[2-anilino-5-(trifluoromethyl)pyrimidin-4-yl]amino}methyl)-4-methylphenyl]-N-methylmethanesulfonamide]
IC50: 0.6 nM

CN(c1ncccc1CNc1nc(Nc2cccc(C(=O)N3CCC[C@H](O)C3)c2)ncc1C(F)(F)F)S(C)(=O)=O [Compound 159, N-{3-[({2-[(3-{[(3S)-3-hydroxypiperidin-1-yl]carbonyl}phenyl)amino]-5-(trifluoromethyl)pyrimidin-4-yl}amino)methyl]pyridin-2-yl}-N-methylmethane-sulfonamide]
IC50: 6.14 nM
